Assay results published in PubChem BioAssay AID180 (DTP/NCI, 2004).
Where “and” joins values, the source holds several entries; their conditions need not be identical. Identical values can stand only once.

Tested on: BDF1 mice, Adenocarcinoma 755 s.c., tumor weight T/C
Assay: NCI In Vivo Anticancer Drug Screen. Data for tumor model Adenocarcinoma 755 (subcutaneous) in B6D2F1 (BDF1) mice
Settings: endpoint: mean tumor weight, higher = larger tumour
Procedure, shortened: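 In vivo antitumor screen on a transplantable tumor line. Result equals the measure in compound-treated animals divided by the same measure in vehicle controls.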

[1] = dose: 1.0 mg/kg/injection, schedule: Q01DX011 (ip), vehicle: carboxymethylcellulose (CMC)

## Nc1nc(Cl)cc(Nc2ccccc2Cl)n1
dose: 15.0 mg/kg/injection, schedule: Q01DX011 (ip), vehicle: methylcellulose (MC)
  T/C: 110 % of control
dose: 31.0 mg/kg/injection, schedule: Q01DX011 (ip), vehicle: methylcellulose (MC)
  T/C: 49 % of control
dose: 62.0 mg/kg/injection, schedule: Q01DX011 (ip), vehicle: methylcellulose (MC)
  T/C: 89 % of control
dose: 125.0 mg/kg/injection, schedule: Q01DX011 (ip), vehicle: methylcellulose (MC)
  T/C: 89 % of control
dose: 250.0 mg/kg/injection, schedule: Q01DX011 (ip), vehicle: methylcellulose (MC)
  T/C: 75 % of control

## CNC(=O)Cc1ccccc1
dose: 125.0 mg/kg/injection, schedule: Q01DX011 (ip), vehicle: water
  T/C: 70 % of control
dose: 250.0 mg/kg/injection, schedule: Q01DX011 (ip), vehicle: water
  T/C: 63 % of control
dose: 500.0 mg/kg/injection, schedule: Q01DX011 (ip), vehicle: water
  T/C: 30 % of control

## O=S(=O)(Nc1ccccc1)c1ccc(C2CC3(Cl)C(Cl)=C(Cl)C2(Cl)C3(Cl)Cl)cc1 (centres undefined)
dose: 28.12 mg/kg/injection, schedule: Q01DX011 (ip), vehicle: methylcellulose (MC)
  T/C: 90 % of control and 109 % of control
dose: 112.5 mg/kg/injection, schedule: Q01DX011 (ip), vehicle: methylcellulose (MC)
  T/C: 95 % of control and 107 % of control
dose: 225.0 mg/kg/injection, schedule: Q01DX011 (ip), vehicle: methylcellulose (MC)
  T/C: 69 % of control

## CCCCSc1ncnc2nc[nH]c12
dose: 0.25 mg/kg/injection, schedule: Q01DX011 (ip), vehicle: carboxymethylcellulose (CMC)
  T/C: 119 % of control
[1]
  T/C: 121 % of control
dose: 4.0 mg/kg/injection, schedule: Q01DX011 (ip), vehicle: carboxymethylcellulose (CMC)
  T/C: 62 % of control
dose: 15.0 mg/kg/injection, schedule: Q01DX011 (ip), vehicle: carboxymethylcellulose (CMC)
  T/C: 4 % of control and 9 % of control
dose: 62.0 mg/kg/injection, schedule: Q01DX011 (ip), vehicle: carboxymethylcellulose (CMC)
  T/C: 4 % of control

## C[C@@H]1C[C@H]2[C@@H]3CCC4=CC(=O)C=C[C@]4(C)[C@@]3(F)[C@@H](O)C[C@]2(C)[C@@]1(O)C(=O)CO
dose: 7.0 mg/kg/injection, schedule: Q01DX011 (sc), vehicle: steriod suspending solution
  T/C: 19 % of control and 32 % of control and 39 % of control
dose: 14.0 mg/kg/injection, schedule: Q01DX011 (sc), vehicle: steriod suspending solution
  T/C: 1 % of control and 25 % of control
dose: 21.0 mg/kg/injection, schedule: Q01DX011 (sc), vehicle: steriod suspending solution
  T/C: 4 % of control
dose: 28.0 mg/kg/injection, schedule: Q01DX011 (sc), vehicle: steriod suspending solution
  T/C: 10 % of control

## CN(N=O)C(=O)C1CC(=O)NC(=O)C1
dose: 2.5 mg/kg/injection, schedule: Q01DX011 (ip), vehicle: carboxymethylcellulose (CMC)
  T/C: 39 % of control
dose: 5.0 mg/kg/injection, schedule: Q01DX011 (ip), vehicle: carboxymethylcellulose (CMC)
  T/C: 102 % of control
dose: 10.0 mg/kg/injection, schedule: Q01DX011 (ip), vehicle: carboxymethylcellulose (CMC)
  T/C: 114 % of control

## O=CNC(Cc1cccc(N(CCCl)CCCl)c1)C(=O)O (centres undefined)
dose: 0.25 mg/kg/injection, schedule: Q01DX011 (ip), vehicle: methylcellulose (MC)
  T/C: 96 % of control
dose: 0.5 mg/kg/injection, schedule: Q01DX011 (ip), vehicle: methylcellulose (MC)
  T/C: 59 % of control
dose: 1.0 mg/kg/injection, schedule: Q01DX011 (ip), vehicle: methylcellulose (MC)
  T/C: 57 % of control
dose: 1.1 mg/kg/injection, schedule: Q01DX011 (ip), vehicle: methylcellulose (MC)
  T/C: 36 % of control
dose: 2.0 mg/kg/injection, schedule: Q01DX011 (ip), vehicle: methylcellulose (MC)
  T/C: 41 % of control
dose: 2.25 mg/kg/injection, schedule: Q01DX011 (ip), vehicle: methylcellulose (MC)
  T/C: 22 % of control
dose: 4.5 mg/kg/injection, schedule: Q01DX011 (ip), vehicle: methylcellulose (MC)
  T/C: 4 % of control

## CCCCN(C)N=Nc1ccc(C(N)=O)cc1
dose: 16.0 mg/kg/injection, schedule: Q01DX011 (ip), vehicle: carboxymethylcellulose (CMC)
  T/C: 14 % of control
dose: 31.0 mg/kg/injection, schedule: Q01DX011 (ip), vehicle: carboxymethylcellulose (CMC)
  T/C: 27 % of control
dose: 50.0 mg/kg/injection, schedule: Q01DX011 (ip), vehicle: carboxymethylcellulose (CMC)
  T/C: 25 % of control
dose: 75.0 mg/kg/injection, schedule: Q01DX011 (ip), vehicle: carboxymethylcellulose (CMC)
  T/C: 14 % of control

## CC(=O)OC1(C)CC(C)C(=O)C(C(O)CC2CC(=O)NC(=O)C2)C1 (centres undefined)
dose: 0.2 mg/kg/injection, schedule: Q01DX006 (ip), vehicle: other
  T/C: 38 % of control
dose: 0.5 mg/kg/injection, schedule: Q01DX006 (ip), vehicle: other
  T/C: 17 % of control
dose: 0.5 mg/kg/injection, schedule: Q01DX006 (ip), vehicle: water
  T/C: 72 % of control
dose: 2.0 mg/kg/injection, schedule: Q01DX006 (ip), vehicle: water
  T/C: 66 % of control
dose: 5.0 mg/kg/injection, schedule: Q01DX006 (ip), vehicle: water
  T/C: 114 % of control
dose: 10.0 mg/kg/injection, schedule: Q01DX006 (ip), vehicle: water
  T/C: 71 % of control
dose: 1:500.0 dilution, schedule: Q01DX006 (ip), vehicle: water
  T/C: 84 % of control
dose: 1:1000.0 dilution, schedule: Q01DX006 (ip), vehicle: water
  T/C: 115 % of control
dose: 1:2000.0 dilution, schedule: Q01DX006 (ip), vehicle: water
  T/C: 105 % of control and 83 % of control
dose: 1:20000.0 dilution, schedule: Q01DX006 (ip), vehicle: water
  T/C: 39 % of control
dose: 1:100000.0 dilution, schedule: Q01DX006 (ip), vehicle: water
  T/C: 101 % of control

## O=C(O)c1cccc2c3c(cc([N+](=O)[O-])c12)CCCC3
dose: 0.18 mg/kg/injection, schedule: Q01DX011 (ip), vehicle: carboxymethylcellulose (CMC)
  T/C: 101 % of control
dose: 0.37 mg/kg/injection, schedule: Q01DX011 (ip), vehicle: carboxymethylcellulose (CMC)
  T/C: 97 % of control
dose: 1.5 mg/kg/injection, schedule: Q01DX011 (ip), vehicle: carboxymethylcellulose (CMC)
  T/C: 85 % of control

## c1ccc2c3c(ccc2c1)Sc1ccc2ccccc2c1N3
dose: 27.5 mg/kg/injection, schedule: Q01DX011 (ip), vehicle: methylcellulose (MC)
  T/C: 73 % of control
dose: 27.5 mg/kg/injection, schedule: Q01DX011 (ip), vehicle: other
  T/C: 108 % of control
dose: 55.0 mg/kg/injection, schedule: Q01DX011 (ip), vehicle: methylcellulose (MC)
  T/C: 76 % of control
dose: 55.0 mg/kg/injection, schedule: Q01DX011 (ip), vehicle: other
  T/C: 115 % of control
dose: 110.0 mg/kg/injection, schedule: Q01DX011 (ip), vehicle: methylcellulose (MC)
  T/C: 58 % of control
dose: 440.0 mg/kg/injection, schedule: Q01DX011 (ip), vehicle: other
  T/C: 64 % of control

## C/C(=N\NC(=O)c1ccncc1)c1ccccc1Cl
dose: 30.0 mg/kg/injection, schedule: Q01DX011 (ip), vehicle: methylcellulose (MC)
  T/C: 56 % of control
dose: 60.0 mg/kg/injection, schedule: Q01DX011 (ip), vehicle: methylcellulose (MC)
  T/C: 61 % of control

## O=C(NCCCCCCCCCCNC(=O)N1CC1)N1CC1
dose: 0.5 mg/kg/injection, schedule: Q01DX011 (ip), vehicle: carboxymethylcellulose (CMC)
  T/C: 57 % of control and 66 % of control
[1]
  T/C: 2 % of control and 20 % of control

## Cn1c(=O)c2c(nc(/N=C/c3ccccc3)n2C)n(C)c1=O
dose: 25.0 mg/kg/injection, schedule: Q01DX011 (ip), vehicle: methylcellulose (MC)
  T/C: 51 % of control
